Here are results for ten compounds from US20100056526A1, “HETEROMONOCYCLIC COMPOUND AND USE THEREOF” (Takeda Pharmaceutical Company Limited, priority 2006, published 2010).

Usually IC50 stands for the point on the concentration scale where inhibition reaches its midpoint.

One assay concerns the target T1, human AT1 receptor (Homo sapiens, UniProt P30556).
T1 construct: expressed in transfected cells; host or cells: CHO-K1
T1 sequence (P30556 1-359): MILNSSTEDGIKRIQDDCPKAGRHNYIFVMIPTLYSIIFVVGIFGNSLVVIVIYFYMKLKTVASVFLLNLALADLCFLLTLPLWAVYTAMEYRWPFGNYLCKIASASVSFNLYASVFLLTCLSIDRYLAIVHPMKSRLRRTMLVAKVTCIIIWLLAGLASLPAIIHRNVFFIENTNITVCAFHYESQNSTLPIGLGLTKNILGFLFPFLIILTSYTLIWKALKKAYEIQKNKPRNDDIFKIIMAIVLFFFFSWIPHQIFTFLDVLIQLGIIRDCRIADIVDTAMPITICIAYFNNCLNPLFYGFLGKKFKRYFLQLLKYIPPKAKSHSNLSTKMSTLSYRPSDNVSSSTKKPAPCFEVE
Put plainly: Binding assay using human AT1 receptor-expressing CHO-K1 cell membrane fraction ([125I]-angiotensin II). Conditions: 22.5 pM [125I]-angiotensin II, 9 μg AT1 membrane, 1 hr room temperature; read-out: AT1 receptor binding inhibitory action (IC50 (nM)). The method, then: The membrane fraction for human AT1 receptor binding assay was prepared as follows. CHO-K1 cell capable of stable expression of human AT1 receptor was cultured, recovered, suspended in homogenize buffer (10 mM NaHCO3 (pH 7.4), 5 mM EDTA, 1×Complete EDTA free) [manufactured by Roche, Switzerland], and homogenized. The homogenate was centrifuged at low-speed (900×g, 10 min, 4° C.), and the supernatant was recovered and ultracentrifuged (90,000×g, 1 hr, 4° C.). The supernatant was discarded, and the pellets were resuspended in resuspension buffer (50 mM Tris (pH 7.4), 1 mM EDTA, 1×Complete EDTA free).
The binding assay was performed in the presence of 22.5 pM [^125I]-angiotensin II [manufactured by PerkinElmer, USA], 9 μg of AT1 membrane and test compound in 100 μL (total reaction volume) of reaction buffer (50 mM Tris (pH 7.4), 10 mM MgCl2 supplemented or not supplemented with 0.3 mg/mL fatty acid-free bovine serum albumin [manufactured by Wako Pure Chemical Industries, Ltd., Japan]). The reaction mixture was incubated in 96 well polypropylene plate for 1 hr at room temperature, and the reaction was quenched by rapid filtration (96 well cell harvester) through a GF/C filter treated with wash buffer (50 mM Tris (pH 7.4)). Subsequently, the filter was washed 5 times with 0.3 mL of ice-cooled wash buffer. The filter was air-dried, and [^125I]-angiotensin II binding radioactivity was assayed with Top Count scintillation counter. Total binding was measured in the presence of 1% DMSO and nonspecific binding was measured in the presence of 1 μM CV-11974. The binding data was analyzed by GraphPad Prism program and the IC50 value (compound concentration showing 50% of the maximum value of inhibition percent) of the test compound was calculated.

The target of the next assay is T2, PPARγ (Homo sapiens, UniProt P37231).
T2 construct: expressed in transfected cells; host or cells: CHO-K1
T2 sequence (P37231 1-477 isoform P37231-2): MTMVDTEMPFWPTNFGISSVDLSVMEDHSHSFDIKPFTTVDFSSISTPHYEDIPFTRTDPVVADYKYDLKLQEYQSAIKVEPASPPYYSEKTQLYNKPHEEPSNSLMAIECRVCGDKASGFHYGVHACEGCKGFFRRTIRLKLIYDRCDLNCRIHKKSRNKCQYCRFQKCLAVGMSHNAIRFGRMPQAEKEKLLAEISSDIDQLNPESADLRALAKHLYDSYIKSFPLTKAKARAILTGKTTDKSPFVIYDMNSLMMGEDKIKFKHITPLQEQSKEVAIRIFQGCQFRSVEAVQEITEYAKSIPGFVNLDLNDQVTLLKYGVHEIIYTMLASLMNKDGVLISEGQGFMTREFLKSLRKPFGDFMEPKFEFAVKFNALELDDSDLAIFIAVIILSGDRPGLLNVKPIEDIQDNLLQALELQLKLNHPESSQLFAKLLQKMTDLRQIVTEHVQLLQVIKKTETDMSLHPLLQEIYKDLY
T2 sequence (P19793 1-462 partner): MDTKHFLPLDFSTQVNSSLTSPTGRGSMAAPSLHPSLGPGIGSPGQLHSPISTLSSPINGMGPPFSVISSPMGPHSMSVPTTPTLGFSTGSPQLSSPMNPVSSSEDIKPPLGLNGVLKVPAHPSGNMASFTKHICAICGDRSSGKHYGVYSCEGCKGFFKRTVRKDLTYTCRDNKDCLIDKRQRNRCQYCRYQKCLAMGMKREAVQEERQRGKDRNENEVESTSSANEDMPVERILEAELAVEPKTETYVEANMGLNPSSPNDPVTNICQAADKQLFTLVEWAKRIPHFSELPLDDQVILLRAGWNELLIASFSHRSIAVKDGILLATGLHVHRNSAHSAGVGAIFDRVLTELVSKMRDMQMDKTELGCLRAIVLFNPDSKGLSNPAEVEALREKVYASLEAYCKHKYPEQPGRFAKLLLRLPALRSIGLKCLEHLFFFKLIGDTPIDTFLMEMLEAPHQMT
Nature of the assay: Evaluation of PPARγ activating action (luciferase reporter in PPARγ:RXRα:4ERPP/CHO-K1 cells). Conditions: CHO-K1, 24 h; test compound 10^−6 M; luciferase activity relative to control compound X (1 μM) = 100%, non-administration group = 0%; read-out: PPARγ activating action (activation % (10^−6 M)). Type of assay: cell-based. As for the experimental part:
PPARγ:RXRα:4ERPP/CHO-K1 cells obtained in the following Reference Example 5 were cultured in F12 medium [manufactured by INVITROGEN, USA] containing 10% fetal bovine serum [manufactured by MOREGATE, Australia], seeded in a 96-well half area white plate [manufactured by Corning Coster Corporation, USA] at the density of 5×10^3 cells/well and cultured in a CO2 gas incubator at 37° C. overnight.
Then the medium was removed from the 96-well half area white plate, 45 μl of Ham's F12 medium containing 0.1% fatty acid-free bovine serum albumin (BSA) and 5 μl of test compound were added, and the cells were cultured in a CO2 gas incubator at 37° C. for 1 day. The medium was removed and 20 μl of PicaGene 7.5 [manufactured by TOYO INK MFG. CO., LTD.,.Japan] diluted 2-fold with HBSS (HANKS' BALANCED SALT SOLUTION) [manufactured by BIO WHITTAKER, USA] was added. After stirring, the luciferase activity was determined using 1420 ARVO Multilabel Counter [manufactured by PerkinElmer, USA].
The percent (%) was calculated from the luciferase activity of each test compound when the luciferase activity of the control compound (compound X: 5-[3-(4-{[2-(2-furyl)-5-methyl-1,3-oxazol-4-yl]methoxy}-3-methoxyphenyl)propyl]-1,3-oxazolidine-2,4-dione) (1 μM) was 100% and that of the test compound non-administration group was 0%.
A CHO-K1 cell cultured in a 150 cm^2 cell culture flask [manufactured by Corning Costar Corporation, USA] containing Ham's F12 medium [manufactured by INVITROGEN, USA] supplemented with 10% fetal bovine serum [manufactured by INVITROGEN, USA] was scraped by treating with 0.5 g/L trypsin-0.2 g/L EDTA (ethylenediaminetetraacetic acid) [manufactured by Life Technologies, Inc., USA], and then the cell was washed with PBS (Phosphate-buffered saline) [manufactured by INVITROGEN, USA], centrifuged (1000 rpm, 5 minutes) and suspended in PBS. Subsequently, DNA was introduced into the cell under the conditions shown below using GENE PULSER [manufactured by Bio-Rad Laboratories, USA].
Namely, to a cuvette having a 0.4 cm gap were added 8×10^6 cells and 10 μg of plasmid pVgRXR2-hPPARγ obtained in Reference Example 4 and 10 μg of reporter plasmid pGL3-4ERPP-TK neo obtained in Reference Example 3, which was subjected to electroporation at the voltage of 0.25 kV under the capacitance of 960 μF. Subsequently, the cell was transferred into a F12 medium containing 10% fetal bovine serum and cultured for 24 hours, and then the cell was scraped again and centrifuged, and then suspended in Ham's F12 medium containing 10% fetal bovine serum supplemented with 500 μg/ml of Geneticin [manufactured by INVITROGEN, USA] and 250 μg/ml of Zeocin [manufactured by INVITROGEN, USA]. The obtained suspension was diluted to the density of 10^4 cells/ml and inoculated in a 96-well plate [manufactured by Corning Costar Corporation, USA], which was cultured in a CO2 gas incubator at 37° C., whereby obtaining a Geneticin- and Zeocin-resistant transformant.
Subsequently, after the transformant cell line thus obtained was cultured in a 24-well plate [manufactured by Corning Costar Corporation, USA], a cell line in which the luciferase was expressed and induced, i.e., PPARγ:RXRα:4ERPP/CHO-K1 cell was selected by the addition of 10 μM pioglitazone hydrochloride.
(In general: Reporter assays use an easily measured gene product as a stand-in for the process of interest.)

Take `CCCCc1nc(OC)n(Cc2ccccc2)c(=O)c1Cc1ccc(-c2ccccc2-c2noc(=O)[nH]2)cc1` [Example 107, 3-benzyl-6-butyl-2-methoxy-5-{[2′-(5-oxo-4,5-dihydro-1,2,4-oxadiazol-3-yl)biphenyl-4-yl]methyl}pyrimidin-4(3H)-one]: the IC50 at human AT1 receptor amounted to 2 nM. Moreover, on PPARγ, the activation at 1 µM was found to be 60%.

In the case of `CCCCc1nc(OC)n(-c2ccccc2)c(=O)c1Cc1ccc(-c2ccccc2-c2noc(=O)[nH]2)cc1` [Example 108, 6-butyl-2-methoxy-5-{[2′-(5-oxo-4,5-dihydro-1,2,4-oxadiazol-3-yl)biphenyl-4-yl]methyl}-3-phenylpyrimidin-4(3H)-one], the IC50 at human AT1 receptor amounted to 2.2 nM. Also, on PPARγ, the activation at 1 µM turned out to be 31.7%.

As for `CCCCc1nc(C2CC2)n(-c2ccc3c(c2)CCO3)c(=O)c1Cc1ccc(-c2ccccc2-c2noc(=O)[nH]2)cc1` [Example 112, 6-butyl-2-cyclopropyl-3-(2,3-dihydro-1-benzofuran-5-yl)-5-{[2′-(5-oxo-4,5-dihydro-1,2,4-oxadiazol-3-yl)biphenyl-4-yl]methyl}pyrimidin-4(3H)-one], the 50% inhibitory concentration (IC50) on human AT1 receptor amounted to 1.7 nM. Also, the activation at 1 µM on PPARγ was 52.1%.

`CCCCc1nc(C(C)C)n(-c2ccc3c(c2)CCO3)c(=O)c1Cc1ccc(-c2ccccc2-c2noc(=O)[nH]2)cc1` [Example 118, 6-butyl-3-(2,3-dihydro-1-benzofuran-5-yl)-2-isopropyl-5-{[2′-(5-oxo-4,5-dihydro-1,2,4-oxadiazol-3-yl)biphenyl-4-yl]methyl}pyrimidin-4(3H)-one]: the IC50 at human AT1 receptor stood at 1.8 nM. Besides, the activation at 1 µM at PPARγ was 50.2%.

For `CCCCc1nc(C)n(-c2ccc3c(c2)CC(C)(C)O3)c(=O)c1Cc1ccc(-c2ccccc2-c2nsc(=O)[nH]2)cc1` [Example 128, 6-butyl-3-(2,2-dimethyl-2,3-dihydro-1-benzofuran-5-yl)-2-methyl-5-{[2′-(5-oxo-4,5-dihydro-1,2,4-thiadiazol-3-yl)biphenyl-4-yl]methyl}pyrimidin-4(3H)-one], the half-maximal inhibitory concentration (IC50) at human AT1 receptor turned out to be 1.9 nM. At PPARγ, the activation at 1 µM worked out at 24.3%.

Consider `CCCc1nc(C)n(-c2ccc3c(c2)CCC(C)(C)O3)c(=O)c1Cc1ccc(-c2ccccc2-c2noc(=O)[nH]2)cc1` [Example 131, 3-(2,2-dimethyl-3,4-dihydro-2H-chromen-6-yl)-2-methyl-5-{[2′-(5-oxo-4,5-dihydro-1,2,4-oxadiazol-3-yl)biphenyl-4-yl]methyl}-6-propylpyrimidin-4(3H)-one], for which the IC50 at human AT1 receptor was 2.2 nM. The activation at 1 µM at PPARγ is 34.2%.

As for `CCCCc1nn(-c2ccc3c(c2)CC(C)(C)O3)c(=O)n1Cc1ccc(-c2ccccc2-c2noc(=O)[nH]2)cc1` [Example 136, 3-(4′-{[3-butyl-1-(2,2-dimethyl-2,3-dihydro-1-benzofuran-5-yl)-5-oxo-1,5-dihydro-4H-1,2,4-triazol-4-yl]methyl}biphenyl-2-yl)-1,2,4-oxadiazol-5(4H)-one], on human AT1 receptor, the IC50 was 2.9 nM. On PPARγ, the activation at 1 µM turned out to be 32.9%.

For `CCCc1nc(C)n(-c2ccc(OC(C)C)cc2)c(=O)c1Cc1ccc(-c2ccccc2-c2noc(=O)[nH]2)cc1F` [Example 141, 5-{[3-fluoro-2′-(5-oxo-4,5-dihydro-1,2,4-oxadiazol-3-yl)biphenyl-4-yl]methyl}-3-(4-isopropoxyphenyl)-2-methyl-6-propylpyrimidin-4(3H)-one], at human AT1 receptor, the IC50 was found to be 1.8 nM. Moreover, the activation at 1 µM on PPARγ stood at 38.3%.

On to `CCCc1nc(C)n(-c2ccc3c(c2)C=CC(C)(C)O3)c(=O)c1Cc1ccc(-c2ccccc2-c2noc(=O)[nH]2)cc1` [Example 142, 3-(2,2-dimethyl-2H-chromen-6-yl)-2-methyl-5-{[2′-(5-oxo-4,5-dihydro-1,2,4-oxadiazol-3-yl)biphenyl-4-yl]methyl}-6-propylpyrimidin-4(3H)-one], for which the 50% inhibitory concentration (IC50) on human AT1 receptor was 1.7 nM. Also, the activation at 1 µM at PPARγ came to 32.8%.

With `CCCc1nc(C)n(-c2ccc3c(c2)C(O)CC(C)(C)O3)c(=O)c1Cc1ccc(-c2ccccc2-c2noc(=O)[nH]2)cc1` (centres unmarked) [Example 144, 3-(4-hydroxy-2,2-dimethyl-3,4-dihydro-2H-chromen-6-yl)-2-methyl-5-{[2′-(5-oxo-4,5-dihydro-1,2,4-oxadiazol-3-yl)biphenyl-4-yl]methyl}-6-propylpyrimidin-4(3H)-one], at human AT1 receptor, the half-inhibitory concentration (IC50) is 1.5 nM. Also, the activation at 1 µM at PPARγ came out at 22.7%.
